Measurements: US20200207734A1, “HETEROCYCLIC COMPOUND AND USE THEREOF” (Takeda Pharmaceutical Company Limited, priority 2017, published 2020)

Molecular target: T1, human orexin type 2 receptor (Homo sapiens, UniProt O43614)
T1 construct: human orexin type 2 receptor cDNA was inserted into pcDNA3.1(+) plasmid vector (Invitrogen); expressed in transfected cells
T1 sequence (O43614 1-444): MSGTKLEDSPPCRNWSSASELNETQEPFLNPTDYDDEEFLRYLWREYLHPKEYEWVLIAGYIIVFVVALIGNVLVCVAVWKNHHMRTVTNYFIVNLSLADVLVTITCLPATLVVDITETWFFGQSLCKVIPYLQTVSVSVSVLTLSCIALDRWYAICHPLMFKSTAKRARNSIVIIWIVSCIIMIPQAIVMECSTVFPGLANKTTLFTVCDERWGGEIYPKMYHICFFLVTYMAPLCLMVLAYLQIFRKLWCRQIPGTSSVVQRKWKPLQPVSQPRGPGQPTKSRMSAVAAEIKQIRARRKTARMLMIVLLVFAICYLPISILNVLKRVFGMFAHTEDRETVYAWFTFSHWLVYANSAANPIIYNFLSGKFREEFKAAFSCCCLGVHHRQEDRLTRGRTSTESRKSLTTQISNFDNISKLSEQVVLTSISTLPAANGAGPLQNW
Test: Measurement of orexin type 2 receptor agonist activity (calcium fluorescence, CHO cells expressing hOX2R)
Format: cell-based
Details: test compound 3 μM; CHO cells expressing human OX2 receptor; DMSO = 0%, orexin A (human) = 100%
Description: To obtain a cell clone stably expressing human orexin type 2 receptor, human orexin type 2 receptor cDNA was inserted into pcDNA3.1(+) plasmid vector (Invitrogen), and a plasmid DNA for expression of human orexin type 2 receptor (pcDNA3.1(+)/hOX2R) was cloned. The plasmid DNA was introduced into CHO-dhfr cell by an electroporation method, and human orexin type 2 receptor expressing clone cells were obtained by limiting dilution method by using G418 drug resistance as a selection marker.
CHO cells forcibly expressing human OX2 receptor were seeded in each well of 384 well black transparent bottom plate (BD Falcon) at 7,500 cells/well, and cultured for one day in a 5% CO2 incubator at 37° C. After removal of the medium in the cell plate, assay buffer A containing a calcium indicator (HBSS (Thermo Fisher Scientific), 20 mM HEPES (Thermo Fisher Scientific), 0.1% BSA (Wako Pure Chemical Industries, Ltd. or Sigma-Aldrich), 2.5 μg/mL Fluo-4 AM (DOJINDO Chemical), 0.08% Pluronic F127 (DOJINDO Chemical), 1.25 mM probenecid (DOJINDO Chemical)) was added at 30 μL/well. The plate was stood for 30 min in a 5% CO2 incubator at 37° C., and further stood at room temperature for 30 min. A test compound prepared by diluting with assay buffer B (HBSS, 20 mM HEPES, 0.1% BSA) was added at 10 μL/well, and the fluorescence value was measured by FDSSμCELL (Hamamatsu Photonics K.K.) every one sec for 1 min, and thereafter every two sec for 1 min 40 sec. The activity (%) of the test compound was calculated assuming that variation in the fluorescence value when DMSO was added instead of the test compound was 0%, and variation in the fluorescence value when orexin A (human) (PEPTIDE INSTITUTE, INC.) was added at the final concentration of 10 nM was 100%.

Row | SMILES | OX2R agonist activity (3 μM, %) [%]
1 | CCCS(=O)(=O)N[C@H]1CCCN(C(=O)OC(C)C)[C@H]1Cc1cccc(-c2ccccc2)n1 (relative stereo) [Example 173, isopropyl cis-2-((6-phenylpyridin-2-yl)methyl)-3-((propylsulfonyl)amino)piperidine-1-carboxylate] | 68
2 | CC(C)OC(=O)N1CCC[C@H](NS(=O)(=O)C2CC2)[C@@H]1Cc1cccc(-c2ccccc2)n1 (relative stereo) [Example 178, isopropyl cis-3-((cyclopropylsulfonyl)amino)-2-((6-phenylpyridin-2-yl)methyl)piperidine-1-carboxylate] | 99
3 | CC(C)OC(=O)N1CCC[C@H](NS(=O)(=O)CCl)[C@@H]1Cc1cccc(-c2ccccc2)n1 (relative stereo) [Example 181, isopropyl cis-3-(((chloromethyl)sulfonyl)amino)-2-((6-phenylpyridin-2-yl)methyl)piperidine-1-carboxylate] | 100
4 | CC(C)OC(=O)N1CCC[C@H](NS(=O)(=O)N(C)C)[C@@H]1Cc1cccc(-c2ccccc2)n1 (relative stereo) [Example 185, isopropyl cis-3-((dimethylsulfamoyl)amino)-2-((6-phenylpyridin-2-yl)methyl)piperidine-1-carboxylate] | 99
5 | C=C(C)c1cccc(C[C@H]2[C@@H](NS(=O)(=O)C3CC3)CCCN2C(=O)OC(C)C)n1 (relative stereo) [Example 191, isopropyl cis-3-((cyclopropylsulfonyl)amino)-2-((6-(prop-1-en-2-yl)pyridin-2-yl)methyl)piperidine-1-carboxylate] | 79
6 | CN(C)C(=O)N1CCC[C@H](NS(C)(=O)=O)[C@@H]1Cc1cccc(-c2ccccc2)c1 (relative stereo) [Example 204, cis-2-(biphenyl-3-ylmethyl)-N,N-dimethyl-3-((methylsulfonyl)amino)piperidine-1-carboxamide] | 95
7 | CS(=O)(=O)N[C@H]1CCN(C(=O)C2CC2)[C@H]1Cc1cccc(-c2ccccc2)c1 (relative stereo) [Example 206, N-(cis-2-(biphenyl-3-ylmethyl)-1-(cyclopropylcarbonyl)pyrrolidin-3-yl)methanesulfonamide] | 94
8 | CC(C)C(=O)N1CC[C@H](NS(C)(=O)=O)[C@@H]1Cc1cccc(-c2ccccc2)c1 (relative stereo) [Example 209, N-(cis-2-(biphenyl-3-ylmethyl)-1-isobutyrylpyrrolidin-3-yl)methanesulfonamide] | 106
9 | CC(C)OC(=O)N1CCC[C@H](NS(C)(=O)=O)[C@@H]1CC1CCCN(c2ccccc2)C1 (relative stereo) [Example 214, isopropyl cis-3-((methylsulfonyl)amino)-2-((1-phenylpiperidin-3-yl)methyl)piperidine-1-carboxylate] | 70
10 | CC(C)(C)C(=O)N1CC[C@H](NS(C)(=O)=O)[C@@H]1Cc1cccc(-c2ccccc2)c1 (relative stereo) [Example 227, N-(cis-2-(biphenyl-3-ylmethyl)-1-(2,2-dimethylpropanoyl)pyrrolidin-3-yl)methanesulfonamide] | 99
11 | CS(=O)(=O)N[C@H]1CCN(C(=O)C2CCC2)[C@H]1Cc1csc(-c2cccc(F)c2)n1 (relative stereo) [Example 254, N-(cis-1-(cyclobutylcarbonyl)-2-((2-(3-fluorophenyl)-1,3-thiazol-4-yl)methyl)pyrrolidin-3-yl)methanesulfonamide] | 101
12 | CS(=O)(=O)N[C@H]1CCN(C(=O)C2CCC2)[C@H]1Cc1csc(-c2ccccc2F)n1 (relative stereo) [Example 255, N-(cis-1-(cyclobutylcarbonyl)-2-((2-(2-fluorophenyl)-1,3-thiazol-4-yl)methyl)pyrrolidin-3-yl)methanesulfonamide] | 101
13 | CS(=O)(=O)N[C@H]1CCN(C(=O)C2CCC2)[C@H]1Cc1csc(-c2cccc(F)c2F)n1 (relative stereo) [Example 256, N-(cis-1-(cyclobutylcarbonyl)-2-((2-(2,3-difluorophenyl)-1,3-thiazol-4-yl)methyl)pyrrolidin-3-yl)methanesulfonamide] | 97
14 | CS(=O)(=O)N[C@H]1CCN(C(=O)C2CCC2)[C@H]1Cc1csc(-c2cc(F)cc(F)c2)n1 (relative stereo) [Example 258, N-(cis-1-(cyclobutylcarbonyl)-2-((2-(3,5-difluorophenyl)-1,3-thiazol-4-yl)methyl)pyrrolidin-3-yl)methanesulfonamide] | 95
15 | O=C(C1CCC1)N1CC[C@H](NS(=O)(=O)C2CC2)[C@@H]1Cc1csc(-c2ccccc2)n1 (relative stereo) [Example 259, N-(cis-1-(cyclobutylcarbonyl)-2-((2-phenyl-1,3-thiazol-4-yl)methyl)pyrrolidin-3-yl)cyclopropanesulfonamide] | 95
16 | O=C(C1CCC1)N1CC[C@H](NS(=O)(=O)CF)[C@@H]1Cc1csc(-c2ccccc2)n1 (relative stereo) [Example 269, N-(cis-1-(cyclobutylcarbonyl)-2-((2-phenyl-1,3-thiazol-4-yl)methyl)pyrrolidin-3-yl)-1-fluoromethanesulfonamide] | 111
17 | CC(C)C(=O)N1CC[C@H](NS(C)(=O)=O)[C@@H]1Cc1cccc(-c2ccccc2)c1F (relative stereo) [Example 293, N-(cis-2-((2-fluorobiphenyl-3-yl)methyl)-1-isobutyrylpyrrolidin-3-yl)methanesulfonamide] | 102
18 | CC(C)C(=O)N1CC[C@H](NS(C)(=O)=O)[C@@H]1Cc1cccc(-c2cccc(F)c2)c1F (relative stereo) [Example 294, N-(cis-2-((2,3′-difluorobiphenyl-3-yl)methyl)-1-isobutyrylpyrrolidin-3-yl)methanesulfonamide] | 104
19 | CS(=O)(=O)N[C@H]1CCN(C(=O)C2CCC2)[C@H]1Cc1cc(F)cc(-c2ccccc2)c1 (relative stereo) [Example 299, N-(cis-1-(cyclobutylcarbonyl)-2-((5-fluorobiphenyl-3-yl)methyl)pyrrolidin-3-yl)methanesulfonamide] | 100
20 | CS(=O)(=O)N[C@H]1CCN(C(=O)C2CCC2)[C@H]1Cc1cc(F)cc(-c2cccc(F)c2)c1 (relative stereo) [Example 300, N-(cis-1-(cyclobutylcarbonyl)-2-((3′,5-difluorobiphenyl-3-yl)methyl)pyrrolidin-3-yl)methanesulfonamide] | 99
21 | CS(=O)(=O)N[C@H]1CCN(C(=O)C2CCC2)[C@H]1Cc1ccc(F)c(-c2ccccc2)c1 (relative stereo) [Example 303, N-(cis-1-(cyclobutylcarbonyl)-2-((6-fluorobiphenyl-3-yl)methyl)pyrrolidin-3-yl)methanesulfonamide] | 95
22 | CS(=O)(=O)N[C@H]1CCN(C(=O)C2CCC2)[C@H]1Cc1ccc(F)c(-c2cccc(F)c2)c1 (relative stereo) [Example 304, N-(cis-1-(cyclobutylcarbonyl)-2-((3′,6-difluorobiphenyl-3-yl)methyl)pyrrolidin-3-yl)methanesulfonamide] | 94
23 | CCS(=O)(=O)N[C@H]1CCN(C(=O)C2CCC2)[C@H]1Cc1csc(-c2cc(F)cc(F)c2)n1 (relative stereo) [Example 315, N-(cis-1-(cyclobutylcarbonyl)-2-((2-(3,5-difluorophenyl)-1,3-thiazol-4-yl)methyl)pyrrolidin-3-yl)ethanesulfonamide] | 105
